In patent publication US8198273B2, “Compounds and methods for kinase modulation, and indications therefor” (Plexxikon Inc., priority 2009, dated 2012):

What was measured:
[1] = Relative solubility by turbidity in aqueous buffers of varying pH; format: physicochemical; settings: for turbidity threshold (L, M, H) 7.4: HEPES pH 7.4; for turbidity threshold (L, M, H) 4.5: SIF pH 4.5; for turbidity threshold (L, M, H) 6.8: SIF pH 6.8; for turbidity threshold (L, M, H) 1.4: buffer pH 1.4 (SGF)
Procedure, shortened: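 Turbidity endpoint: concentration where optical density at 490, 535 and 650 nm exceeds 0.01, three-wavelength average used. Buffers at pH 1.5, 4.5, 6.8 and 7.4; DMSO serial dilutions of 25 mM stock spiked 1 μL into 99 μL buffer. Low <31.3, moderate 31.3–250, high >250 μM.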

[2] = system: COLO205 colon adenocarcinoma cells (B-Raf V600E); test: COLO205 cell growth inhibition (ATPlite); format: cell-based; settings: Homo sapiens, COLO 205, 72 h; COLO205, 3 days incubation
Procedure, shortened: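 Cells plated overnight, then exposed 3 days at 37° C to 8-point 1:3 compound dilutions topping at 10 μM final. Viability read as ATPlite luminescence, proportional to cell number; IC50 from luminescence versus concentration.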

[3] = biological target: B-Raf (Homo sapiens, UniProt P15056); test: B-Raf biochemical kinase inhibition (AlphaScreen, biotin-MEK1 substrate); settings: 100 μM ATP
Chain of B-Raf (P15056 whole entry): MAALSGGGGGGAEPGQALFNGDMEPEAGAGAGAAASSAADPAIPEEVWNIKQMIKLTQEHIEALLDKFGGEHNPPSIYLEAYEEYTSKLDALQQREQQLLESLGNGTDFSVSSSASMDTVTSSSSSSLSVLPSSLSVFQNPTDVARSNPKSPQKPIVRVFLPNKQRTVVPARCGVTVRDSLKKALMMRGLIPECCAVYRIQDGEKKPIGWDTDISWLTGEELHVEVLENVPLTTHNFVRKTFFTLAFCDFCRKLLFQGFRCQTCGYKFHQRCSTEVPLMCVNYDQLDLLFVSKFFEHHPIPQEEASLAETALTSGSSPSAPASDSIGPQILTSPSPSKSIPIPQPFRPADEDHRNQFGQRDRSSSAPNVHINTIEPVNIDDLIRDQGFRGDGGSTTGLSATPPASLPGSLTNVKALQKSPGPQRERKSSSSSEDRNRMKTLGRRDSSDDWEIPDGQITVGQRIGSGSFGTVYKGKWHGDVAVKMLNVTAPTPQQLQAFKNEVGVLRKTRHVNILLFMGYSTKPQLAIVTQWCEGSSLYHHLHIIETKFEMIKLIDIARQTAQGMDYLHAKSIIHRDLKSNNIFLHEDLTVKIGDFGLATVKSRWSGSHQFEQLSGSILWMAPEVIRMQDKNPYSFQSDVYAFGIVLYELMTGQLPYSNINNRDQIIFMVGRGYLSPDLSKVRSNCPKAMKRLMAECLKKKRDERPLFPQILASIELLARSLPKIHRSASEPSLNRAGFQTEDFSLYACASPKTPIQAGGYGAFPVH
Procedure, shortened: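 Raf kinases phosphorylating biotin-MEK1, reaction started with ATP at 100 μM final. Compounds tested at 8 points by serial dilution from a 0.1 mM DMSO stock.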

SMILES | turbidity threshold (L, M, H) 7.4 [1] | turbidity threshold (L, M, H) 4.5 [1] | turbidity threshold (L, M, H) 6.8 [1] | turbidity threshold (L, M, H) 1.4 [1] | IC50 [2] | IC50 [3]
CCCS(=O)(=O)Nc1ccc(F)c(C(=O)c2c[nH]c3ncc(-c4cncnc4)cc23)c1F [P-2162, Propane-1-sulfonic acid [2,4-difluoro-3-(5-pyrimidin-5-yl-1H-pyrrolo[2,3-b]pyridine-3-carbonyl)-phenyl]-amide] | M (moderate solubility if the threshold concentration is 31.3 μM to 250 μM) | M (moderate solubility if the threshold concentration is 31.3 μM to 250 μM) | M (moderate solubility if the threshold concentration is 31.3 μM to 250 μM) | M (moderate solubility if the threshold concentration is 31.3 μM to 250 μM) | < 1000 nM | < 100 nM
CCCS(=O)(=O)Nc1ccc(F)c(C(=O)c2c[nH]c3ncc(-c4cnc(N5CCCC5)nc4)cc23)c1F [P-2219, Propane-1-sulfonic acid {2,4-difluoro-3-[5-(2-pyrrolidin-1-yl-pyrimidin-5-yl)-1H-pyrrolo[2,3-b]pyridine-3-carbonyl]-phenyl}-amide] | L (low solubility if the threshold concentration is <31.3 04) | L (low solubility if the threshold concentration is <31.3 04) | L (low solubility if the threshold concentration is <31.3 04) | M (moderate solubility if the threshold concentration is 31.3 μM to 250 μM) | < 100 nM | < 100 nM
O=C(c1c(F)ccc(NS(=O)(=O)c2cc(F)ccc2F)c1F)c1c[nH]c2ncc(Cl)cc12 [P-2002, N-[3-(5-Chloro-1H-pyrrolo[2,3-b]pyridine-3-carbonyl)-2,4-difluoro-phenyl]-2,5-difluoro-benzenesulfonamide] | M (moderate solubility if the threshold concentration is 31.3 μM to 250 μM) | L (low solubility if the threshold concentration is <31.3 04) | M (moderate solubility if the threshold concentration is 31.3 μM to 250 μM) | L (low solubility if the threshold concentration is <31.3 04) | < 1000 nM | < 10 nM
CCCS(=O)(=O)Nc1ccc(F)c(C(=O)c2c[nH]c3ncc(-c4ccc(F)nc4)cc23)c1F [P-2155, Propane-1-sulfonic acid {2,4-difluoro-3-[5-(6-fluoro-pyridin-3-yl)-1H-pyrrolo[2,3-b]pyridine-3-carbonyl]-phenyl}-amide] | L (low solubility if the threshold concentration is <31.3 04) | L (low solubility if the threshold concentration is <31.3 04) | L (low solubility if the threshold concentration is <31.3 04) | L (low solubility if the threshold concentration is <31.3 04) | < 1000 nM | < 10 nM
CCCS(=O)(=O)Nc1ccc(F)c(C(=O)c2c[nH]c3ncc(-c4ccc(N5CCCC5)nc4)cc23)c1F [P-2231, Propane-1-sulfonic acid {2,4-difluoro-3-[5-(6-pyrrolidin-1-yl-pyridin-3-yl)-1H-pyrrolo[2,3-b]pyridine-3-carbonyl]-phenyl}-amide] | L (low solubility if the threshold concentration is <31.3 04) | L (low solubility if the threshold concentration is <31.3 04) | L (low solubility if the threshold concentration is <31.3 04) | L (low solubility if the threshold concentration is <31.3 04) | < 1000 nM | < 10 nM
Cc1cnc2[nH]cc(C(=O)c3c(F)ccc(NS(=O)(=O)c4cccc(F)c4)c3F)c2c1 [P-2016, N-[2,4-Difluoro-3-(5-methyl-1H-pyrrolo[2,3-b]pyridine-3-carbonyl)-phenyl]-3-fluoro-benzenesulfonamide] | M (moderate solubility if the threshold concentration is 31.3 μM to 250 μM) | L (low solubility if the threshold concentration is <31.3 04) | M (moderate solubility if the threshold concentration is 31.3 μM to 250 μM) | H (high solubility if the threshold concentration is >250 μM) | < 5000 nM | < 100 nM
O=C(c1c(F)ccc(NS(=O)(=O)c2cc(F)ccc2F)c1F)c1c[nH]c2nccc(Cl)c12 [P-2018, N-[3-(4-Chloro-1H-pyrrolo[2,3-b]pyridine-3-carbonyl)-2,4-difluoro-phenyl]-2,5-difluoro-benzenesulfonamide] | M (moderate solubility if the threshold concentration is 31.3 μM to 250 μM) | M (moderate solubility if the threshold concentration is 31.3 μM to 250 μM) | M (moderate solubility if the threshold concentration is 31.3 μM to 250 μM) | L (low solubility if the threshold concentration is <31.3 04) | < 5000 nM | < 10 nM
COc1ccnc2[nH]cc(C(=O)c3c(F)ccc(NS(=O)(=O)c4ccccc4F)c3F)c12 [P-2021, N-[2,4-Difluoro-3-(4-methoxy-1H-pyrrolo[2,3-b]pyridine-3-carbonyl)-phenyl]-2-fluoro-benzenesulfonamide] | M (moderate solubility if the threshold concentration is 31.3 μM to 250 μM) | M (moderate solubility if the threshold concentration is 31.3 μM to 250 μM) | M (moderate solubility if the threshold concentration is 31.3 μM to 250 μM) | H (high solubility if the threshold concentration is >250 μM) | < 5000 nM | < 100 nM
CCCS(=O)(=O)Nc1cccc(C(=O)c2c[nH]c3ncc(-c4cnc(OC)nc4)cc23)c1F [P-2407, Propane-1-sulfonic acid {2-fluoro-3-[5-(2-methoxy-pyrimidin-5-yl)-1H-pyrrolo[2,3-b]pyridine-3-carbonyl]-phenyl}-amide] | L (low solubility if the threshold concentration is <31.3 04) | L (low solubility if the threshold concentration is <31.3 04) | L (low solubility if the threshold concentration is <31.3 04) | L (low solubility if the threshold concentration is <31.3 04) | < 1000 nM | < 100 nM
CCCS(=O)(=O)Nc1ccc(F)c(C(=O)c2c[nH]c3ncc(-c4ccc(S(C)(=O)=O)cc4)cc23)c1F [P-2183, Propane-1-sulfonic acid {2,4-difluoro-3-[5-(4-methanesulfonyl-phenyl)-1H-pyrrolo[2,3-b]pyridine-3-carbonyl]-phenyl}-amide] | L (low solubility if the threshold concentration is <31.3 04) | L (low solubility if the threshold concentration is <31.3 04) | L (low solubility if the threshold concentration is <31.3 04) | L (low solubility if the threshold concentration is <31.3 04) | < 100 nM | < 10 nM
CCCS(=O)(=O)Nc1cccc(C(=O)c2c[nH]c3ncc(-c4cnc(N(C)C)nc4)cc23)c1F [P-2408, Propane-1-sulfonic acid {3-[5-(2-dimethylamino-pyrimidin-5-yl)-1H-pyrrolo[2,3-b]pyridine-3-carbonyl]-2-fluoro-phenyl}-amide] | L (low solubility if the threshold concentration is <31.3 04) | L (low solubility if the threshold concentration is <31.3 04) | L (low solubility if the threshold concentration is <31.3 04) | L (low solubility if the threshold concentration is <31.3 04) | < 1000 nM | < 10 nM
N#Cc1cnc2[nH]cc(C(=O)c3c(F)ccc(NS(=O)(=O)c4ccccc4)c3F)c2c1 [P-2046, N-[3-(5-Cyano-1H-pyrrolo[2,3-b]pyridine-3-carbonyl)-2,4-difluoro-phenyl]-benzenesulfonamide] | M (moderate solubility if the threshold concentration is 31.3 μM to 250 μM) | L (low solubility if the threshold concentration is <31.3 04) | M (moderate solubility if the threshold concentration is 31.3 μM to 250 μM) | L (low solubility if the threshold concentration is <31.3 04) | < 1000 nM | < 10 nM
CCCS(=O)(=O)Nc1ccc(F)c(C(=O)c2c[nH]c3ncc(-c4cnc(N(C)C)nc4)cc23)c1F [P-2196, Propane-1-sulfonic acid {3-[5-(2-dimethylamino-pyrimidin-5-yl)-1H-pyrrolo[2,3-b]pyridine-3-carbonyl]-2,4-difluoro-phenyl}-amide] | L (low solubility if the threshold concentration is <31.3 04) | L (low solubility if the threshold concentration is <31.3 04) | L (low solubility if the threshold concentration is <31.3 04) | M (moderate solubility if the threshold concentration is 31.3 μM to 250 μM) | < 1000 nM | < 10 nM
